Measurements taken from patent US11530244B2, “Cyclic polypeptides for PCSK9 inhibition” (priority 2018, dated 2022).
pIC50: −log10 of the molar value. Read-outs that look alike come from different tables or passages of the source. Starred links: 1 amine or outer side, 2 acyl side, 3 side chain; linkers in the order of their positions; H or OH if unused. Positions of bridges follow the written chain, without caps; N, C: chain ends. Non-standard residues stand in square brackets, D forms with d. Residues, ends and D or L forms follow the SMILES beside them. Triazole bridges read from a SMILES are 1,4-linked. Phe(4-COOH) = N[C@@H](Cc1ccc(C(=O)O)cc1)C(=O)O; Trp(5-F) = N[C@@H](Cc1c[nH]c2ccc(F)cc12)C(=O)O; Trp(6-F) = N[C@@H](Cc1c[nH]c2cc(F)ccc12)C(=O)O; NMeW = CN[C@@H](Cc1c[nH]c2ccccc12)C(=O)O; Pro(4S-NH2) = N[C@@H]1CN[C@H](C(=O)O)C1; X4 = O=C(CCSCc1cccc(CSCCN[*:1])c1)[*:2]; Orn(N3) = [N-]=[N+]=NCCC[C@H](N)C(=O)O; NMeY = CN[C@@H](Cc1ccc(O)cc1)C(=O)O; X47 = O=C(O)CCCCC(N[*:1])C(=O)[*:2]; X21 = O=C(Cc1cccc(CN[*:2])c1)[*:1]; X39 = c1cc(CCSCN[*:2])cc(C[*:1])c1; hLys = NCCCCC[C@H](N)C(=O)O; αMeP = C[C@@]1(C(=O)O)CCCN1; dPra = C#CC[C@@H](N)C(=O)O; Dab = NCC[C@H](N)C(=O)O; X2 = O=C(C[*:2])[*:1]; Ahx = NCCCCCC(=O)O; Mpa = O=C(O)CCS

Legend:
[1] = target: human PCSK9 / human LDLR EGFa domain interaction (Homo sapiens (Human), UniProt Q8NBP7); assay: TR-FRET assay of inhibition of the PCSK9-LDLR protein-protein interaction; format: binding
human PCSK9 / human LDLR EGFa domain interaction, sequence (Q8NBP7 153-692): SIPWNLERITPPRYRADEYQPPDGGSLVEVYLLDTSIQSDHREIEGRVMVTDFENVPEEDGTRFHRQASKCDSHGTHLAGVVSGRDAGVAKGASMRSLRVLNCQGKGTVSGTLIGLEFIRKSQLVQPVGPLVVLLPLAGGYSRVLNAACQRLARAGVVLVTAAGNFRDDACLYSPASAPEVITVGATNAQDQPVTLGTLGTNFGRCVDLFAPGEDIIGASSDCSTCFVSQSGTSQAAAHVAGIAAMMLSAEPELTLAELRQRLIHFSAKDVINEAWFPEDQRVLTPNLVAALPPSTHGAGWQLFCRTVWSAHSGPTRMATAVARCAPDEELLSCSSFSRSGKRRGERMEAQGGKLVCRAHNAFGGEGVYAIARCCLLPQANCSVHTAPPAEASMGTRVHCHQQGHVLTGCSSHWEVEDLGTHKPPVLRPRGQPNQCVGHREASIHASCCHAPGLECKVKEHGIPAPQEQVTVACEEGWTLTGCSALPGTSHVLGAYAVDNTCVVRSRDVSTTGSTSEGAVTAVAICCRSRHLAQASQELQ
human PCSK9 / human LDLR EGFa domain interaction, sequence (Q8NBP7 31-152 partner): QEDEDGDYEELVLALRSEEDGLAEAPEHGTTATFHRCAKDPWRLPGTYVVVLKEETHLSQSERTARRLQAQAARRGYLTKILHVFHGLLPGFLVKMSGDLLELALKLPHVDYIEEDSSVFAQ
Outline: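 Readout is the TR-FRET signal between europium anti-6×His on his-tagged LDLR EGFa domain and Ulight streptavidin on biotinylated PCSK9, both proteins at 20 nM and both detection reagents at 5 nM. Incubation lasted 2 hours at room temperature; compounds were run in dose-response with a 4-parameter fit.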

PCSK9 = PCSK9 (Homo sapiens (Human), UniProt Q8NBP7); assay: PCSK9 Alexa FRET Standard assay (displacement of AlexaFluor647 tagged cyclic peptide Reagent A); format: binding
PCSK9, sequence (Q8NBP7 153-692): as the sequence (Q8NBP7 153-692) above
Outline: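 TR-FRET displacement: 0.5 nM biotinylated PCSK9 with 1.25 nM Strep-Eu and 20 nM AlexaFluor-tagged cyclic peptide (final) in 50 mM HEPES pH 7.4, 0.15 M NaCl, 5 mM CaCl2, 0.01% BSA, 0.01% P20, ≥2 h at room temperature. IC50 from sigmoidal fit, converted to Ki via peptide KD; falling Eu counts flagged false positives.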

[2] = TR-FRET, 20 nM human PCSK9, 20 nM human LDLR EGFa domain, 2 hours room temperature, read-out: IC50
[3] = PCSK9 Alexa FRET Standard assay, 0.5 nM PCSK9, 20 nM AF cyclic peptide Reagent A, read-out: IC50

Row | Compound | pIC50 [1, 2] | pIC50 (PCSK9; [3]) | pIC50 [1] | pIC50 (PCSK9; IC50)
1 | CC(=O)N[C@@H]1Cc2cn(nn2)CCC[C@@H](C(N)=O)NC(=O)[C@]2(C)CCCN2C(=O)[C@H](Cc2ccc(O)cc2)NC(=O)[C@H](Cc2cnc[nH]2)NC(=O)[C@H](CC(=O)O)NC(=O)[C@H](Cc2c[nH]c3ccc(F)cc23)NC(=O)[C@H](Cc2c[nH]c3ccc(F)cc23)NC(=O)CNC1=O [Compound 335] (Ac-[dPra]G[Trp(5-F)][Trp(5-F)]DHY[αMeP][Orn(N3)]-NH2; triazole 1-9) | 4.92 to 6.00 | 4.92 to 6.00 | – | –
2 | COc1ccc(C[C@@H]2NC(=O)[C@H](Cc3cnc[nH]3)NC(=O)[C@H](CC(=O)O)NC(=O)[C@H](Cc3c[nH]c4ccc(F)cc34)NC(=O)[C@H](Cc3c[nH]c4ccc(F)cc34)NC(=O)[C@@H](C)NC(=O)[C@H](CCCCN)NC(=O)[C@@H](NC(C)=O)CCNC(=O)COc3ccc(cc3)C[C@@H](C(N)=O)NC(=O)[C@]3(C)CCCN3C2=O)cc1 [Compound 409] (Ac-[Dab]K[dA][Trp(5-F)][Trp(5-F)]DHY(Me)[αMeP]Y-NH2; linker 1-10 via X2) | 7.00 to 10.00 | 6.00 to 7.00 | – | –
3 | C[C@@]12CCCN1C(=O)[C@H](Cc1ccc(O)cc1)NC(=O)[C@H](Cc1cnc[nH]1)NC(=O)[C@H](CC(=O)O)NC(=O)[C@H](Cc1c[nH]c3cc(F)ccc13)NC(=O)[C@H](Cc1c[nH]c3ccc(F)cc13)NC(=O)CNC(=O)CCCCCNC(=O)c1ccc(cc1)C[C@@H](C(N)=O)NC2=O [Compound 313] ([Ahx]G[Trp(5-F)][Trp(6-F)]DHY[αMeP][Phe(4-COOH)]-NH2; lactam N-9) | 4.92 to 6.00 | 4.92 to 6.00 | – | –
4 | COc1ccc(C[C@@H]2NC(=O)[C@H](Cc3cnc[nH]3)NC(=O)[C@H](CC(=O)O)NC(=O)[C@H](Cc3c[nH]c4ccc(F)cc34)NC(=O)[C@H](Cc3c[nH]c4ccc(F)cc34)NC(=O)[C@@H](C)NC(=O)[C@H](CCCCN)NC(=O)[C@@H](NC(C)=O)CCCCCNC(=O)c3ccc(cc3)C[C@@H](C(N)=O)NC(=O)[C@]3(C)CCCN3C2=O)cc1 [Compound 393] (Ac-[hLys]K[dA][Trp(5-F)][Trp(5-F)]DHY(Me)[αMeP][Phe(4-COOH)]-NH2; lactam 1-10) | 7.00 to 10.00 | 6.00 to 7.00 | – | –
5 | C[C@H]1NC(=O)[C@H](CCCCN)NC(=O)CCSCc2cccc(c2)CSCCNC(=O)[C@]2(C)CCCN2C(=O)[C@H](Cc2ccc(O)cc2)N(C)C(=O)[C@H](Cc2c[nH]cn2)NC(=O)[C@H](CC(=O)O)NC(=O)[C@H](Cc2c[nH]c3ccc(F)cc23)NC(=O)[C@H](Cc2c[nH]c3ccccc23)N(C)C1=O [Compound 276] (cyclo(DH[NMeY][αMeP][X4]K[dA][NMeW][Trp(5-F)])) | – | – | 7.00 to 10.00 | 6.00 to 7.00
6 | CC(=O)N[C@H]1Cc2cn(nn2)-c2ccc(cc2)C[C@@H](C(N)=O)NC(=O)[C@]2(C)CCCN2C(=O)[C@H](Cc2ccc(O)cc2)NC(=O)[C@H](Cc2cnc[nH]2)NC(=O)[C@H](CC(=O)O)NC(=O)[C@H](Cc2c[nH]c3ccc(F)cc23)NC(=O)[C@H](Cc2c[nH]c3ccc(F)cc23)NC(=O)CNC(=O)[C@H](C)NC1=O [Compound 334] | 4.30 to 4.68 | 4.30 to 4.68 | – | –
7 | COc1ccc(C[C@@H]2NC(=O)[C@@H]3CCCCC(=O)N[C@H]4C[C@@H](C(=O)N3)N(C4)C(=O)[C@H](Cc3c[nH]c4ccc(F)cc34)NC(=O)[C@H](Cc3c[nH]c4ccc(F)cc34)NC(=O)[C@@H](C)NC(=O)[C@H](CCCN)NC(=O)CCSCc3cccc(c3)CCSCNC(=O)[C@]3(C)CCCN3C2=O)cc1 [Compound 521] | 7.00 to 10.00 | 7.00 to 9.96 | – | –
8 | COc1ccc(C[C@@H]2NC(=O)[C@H](Cc3cnc[nH]3)NC(=O)[C@H](CC(=O)O)NC(=O)[C@H](Cc3c[nH]c4ccc(F)cc34)NC(=O)[C@H](Cc3c[nH]c4ccc(F)cc34)NC(=O)[C@@H](C)NC(=O)[C@H](NC(C)=O)CCCCNC(=O)Cc3cccc(c3)CNC(=O)C[C@@H](C(N)=O)NC(=O)[C@]3(C)CCCN3C2=O)cc1 [Compound 394] (Ac-[dK][dA][Trp(5-F)][Trp(5-F)]DHY(Me)[αMeP]D-NH2; linker 1-9 via X21) | 6.00 to 7.00 | 6.00 to 7.00 | – | –
9 | COc1ccc(C[C@@H]2NC(=O)C(CCCCC(=O)O)NC(=O)[C@@H]3C[C@H](N)CN3C(=O)[C@H](Cc3c[nH]c4ccc(F)cc34)NC(=O)[C@H](Cc3c[nH]c4ccc(F)cc34)NC(=O)[C@@H](C)NC(=O)[C@H](CCCN=[N+]=[N-])NC(=O)CCSCc3cccc(c3)CCSCNC(=O)[C@]3(C)CCCN3C2=O)cc1 (stereo partly drawn) [Compound 388] ([Mpa][Orn(N3)][dA][Trp(5-F)][Trp(5-F)][Pro(4S-NH2)][X47]Y(Me)[αMeP]; linker 1-C via X39) | 7.00 to 10.00 | 6.00 to 7.00 | – | –
10 | COc1ccc(C[C@@H]2NC(=O)[C@H](Cc3cnc[nH]3)NC(=O)[C@H](CC(=O)O)NC(=O)[C@H](Cc3c[nH]c4ccc(F)cc34)NC(=O)[C@H](Cc3c[nH]c4ccc(F)cc34)NC(=O)[C@@H](C)NC(=O)[C@H](CCCCN)NC(=O)[C@@H](NC(C)=O)CCc3cn(nn3)-c3ccc(cc3)C[C@@H](C(N)=O)NC(=O)[C@]3(C)CCCN3C2=O)cc1 [Compound 371] | 7.00 to 10.00 | 7.00 to 9.96 | – | –
